The source made the active and inactive calls. No cut-off for these calls is given here.
Key:
[1] = Binding affinity to telo24 G-quadruplex DNA (unknown origin) assessed as compound:telo24 complex formation at ratio of 2:1 after 14 hrs by electrophoresis mobility shift assay
[2] = Stabilization of telo96 G-quadruplex DNA (unknown origin) assessed as melting temperature at 16 eq. by spectropolarimeter analysis in presence of KCl (reference value: 55 degC)
[3] = Stabilization of telo72 G-quadruplex DNA (unknown origin) assessed as melting temperature at 12 eq. by spectropolarimeter analysis in presence of KCl (reference value: 55 degC)
[4] = Stabilization of telo48 G-quadruplex DNA (unknown origin) assessed as melting temperature at 8 eq. by spectropolarimeter analysis in presence of KCl (Rvb= 57 degC)
[5] = Stabilization of telo24 G-quadruplex DNA (unknown origin) assessed as melting temperature at 4 eq. by spectropolarimeter analysis in presence of KCl (reference value: 59 degC)
[6] = Binding affinity to telo96 G-quadruplex DNA (unknown origin) assessed as change of topology from hybrid-type to anti-parallel form by CD spectrometry in presence of KCl
[7] = Binding affinity to telo72 G-quadruplex DNA (unknown origin) assessed as change of topology from hybrid-type to anti-parallel form by CD spectrometry in presence of KCl
[8] = Binding affinity to telo48 G-quadruplex DNA (unknown origin) assessed as change of topology from hybrid-type to anti-parallel form by CD spectrometry in presence of KCl
[9] = Binding affinity to telo24 G-quadruplex DNA (unknown origin) assessed as change of topology from hybrid-type to anti-parallel form by CD spectrometry in presence of KCl
[10] = Binding affinity to telo96 G-quadruplex DNA (unknown origin) assessed as appearance of new bands with longer migration distances after 14 hrs by electrophoresis mobility shift assay
[11] = Binding affinity to telo72 G-quadruplex DNA (unknown origin) assessed as appearance of new bands with longer migration distances after 14 hrs by electrophoresis mobility shift assay
[12] = Binding affinity to telo48 G-quadruplex DNA (unknown origin) assessed as appearance of new bands with longer migration distances after 14 hrs by electrophoresis mobility shift assay
[13] = Binding affinity to telo24 G-quadruplex DNA (unknown origin) assessed as appearance of new bands with longer migration distances after 14 hrs by electrophoresis mobility shift assay

Activity [1]: Active
Tm [2]: 70 °C
Tm [3]: 73 °C
Tm [4]: 76 °C
Tm [5]: 75 °C
Activity [6]: Active
Activity [7]: Active
Activity [8]: Active
Activity [9]: Active
Activity [10]: Active
Activity [11]: Active
Activity [12]: Active
Activity [13]: Active
SMILES: NCCCC[C@@H]1NC(=O)c2coc(n2)-c2coc(n2)-c2coc(n2)[C@H](CCCCN)NC(=O)c2coc(n2)-c2coc(n2)-c2coc1n2

From ChEMBL document CHEMBL3217495, “Interaction of long telomeric DNAs with macrocyclic hexaoxazole as a G-quadruplex ligand” (Medchemcomm, 2013)
